From patent publication US20040198981A1, “Tricyclic dihydroquinoline derivatives,method for preparing same and pharmaceutical compositions containing same” (priority 2001, published 2004)

System: murine leukaemia, L1210
Assay: In vitro cytotoxicity, Microculture Tetrazolium Assay
Format: cell-based
Settings: Mus musculus, 48 h; L1210 cells, incubated for 2 days; read-out: IC50 (concentration of cytotoxic agent which inhibits proliferation of the treated cells by 50%)
Description: Three cell lines were used:
1 murine leukaemia, L1210,
1 human non-small-cell lung carcinoma, A549,
1 human colon carcinoma, HT29.
The cells are cultured in RPMI 1640 complete culture medium containing 10% foetal calf serum, 2 mM glutamine, 50 units/ml of penicillin, 50 μg/ml of streptomycin and 10 mM Hepes, pH=7.4. The cells are distributed on microplates and are exposed to the cytotoxic compounds. The cells are then incubated for 2 days (L1210) or 4 days (A549, HT29). The number of viable cells is then quantified by a colorimetric assay, the Microculture Tetrazolium Assay (Cancer Res. 1987, 47, 939-942).

With COc1cc(C2C3=C(COC3=S)N(Cc3ccccc3)c3cc4c(cc32)OCO4)cc(OC)c1OC (stereo not shown) [Example 5, 4-Benzyl-6,7-methylenedioxy-9-(3,4,5-trimethoxyphenyl)-4,9-dihydrofuro[3,4-b]quinoline-1(3H)-thione] as the molecule, how does the IC50 read?
The IC50 was 190 nM.
